# Assay results reported in publication PMC9851200, “Multiparameter phenotypic screening for endogenous TFEB and TFE3 translocation identifies novel chemical series modulating lysosome function” (Autophagy, 2022).
# Key:
# Type in all cases: binding
# [1] = target: kinases (KINOMEscan panel) (Homo sapiens, UniProt P07333); conditions: NEW KINOMEscan
# [2] = target: kinases (KINOMEscan panel) (Homo sapiens, UniProt P12931); conditions: SRC; NEW KINOMEscan
# [3] = target: kinases (KINOMEscan panel) (Homo sapiens, UniProt P31751); conditions: NEW KINOMEscan
# kinases (KINOMEscan panel) (Homo sapiens, UniProt P31751), sequence (P31751 whole entry): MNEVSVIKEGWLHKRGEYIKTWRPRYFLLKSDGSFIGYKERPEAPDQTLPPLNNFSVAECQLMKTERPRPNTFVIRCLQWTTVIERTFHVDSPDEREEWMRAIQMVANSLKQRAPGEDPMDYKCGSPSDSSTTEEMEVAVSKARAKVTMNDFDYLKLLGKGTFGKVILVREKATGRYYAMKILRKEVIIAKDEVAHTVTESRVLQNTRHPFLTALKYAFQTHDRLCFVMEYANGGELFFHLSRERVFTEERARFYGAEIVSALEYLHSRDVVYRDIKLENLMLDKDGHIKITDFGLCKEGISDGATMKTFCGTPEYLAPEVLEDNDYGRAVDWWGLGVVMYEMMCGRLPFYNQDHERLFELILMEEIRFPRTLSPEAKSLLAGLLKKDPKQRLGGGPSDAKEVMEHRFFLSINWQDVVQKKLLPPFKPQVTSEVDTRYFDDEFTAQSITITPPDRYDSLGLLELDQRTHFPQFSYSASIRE
# [4] = target: kinases (KINOMEscan panel) (Homo sapiens, UniProt P42336, M1043I); conditions: NEW KINOMEscan
# kinases (KINOMEscan panel) (Homo sapiens, UniProt P42336, M1043I), sequence (P42336 whole entry M1043I): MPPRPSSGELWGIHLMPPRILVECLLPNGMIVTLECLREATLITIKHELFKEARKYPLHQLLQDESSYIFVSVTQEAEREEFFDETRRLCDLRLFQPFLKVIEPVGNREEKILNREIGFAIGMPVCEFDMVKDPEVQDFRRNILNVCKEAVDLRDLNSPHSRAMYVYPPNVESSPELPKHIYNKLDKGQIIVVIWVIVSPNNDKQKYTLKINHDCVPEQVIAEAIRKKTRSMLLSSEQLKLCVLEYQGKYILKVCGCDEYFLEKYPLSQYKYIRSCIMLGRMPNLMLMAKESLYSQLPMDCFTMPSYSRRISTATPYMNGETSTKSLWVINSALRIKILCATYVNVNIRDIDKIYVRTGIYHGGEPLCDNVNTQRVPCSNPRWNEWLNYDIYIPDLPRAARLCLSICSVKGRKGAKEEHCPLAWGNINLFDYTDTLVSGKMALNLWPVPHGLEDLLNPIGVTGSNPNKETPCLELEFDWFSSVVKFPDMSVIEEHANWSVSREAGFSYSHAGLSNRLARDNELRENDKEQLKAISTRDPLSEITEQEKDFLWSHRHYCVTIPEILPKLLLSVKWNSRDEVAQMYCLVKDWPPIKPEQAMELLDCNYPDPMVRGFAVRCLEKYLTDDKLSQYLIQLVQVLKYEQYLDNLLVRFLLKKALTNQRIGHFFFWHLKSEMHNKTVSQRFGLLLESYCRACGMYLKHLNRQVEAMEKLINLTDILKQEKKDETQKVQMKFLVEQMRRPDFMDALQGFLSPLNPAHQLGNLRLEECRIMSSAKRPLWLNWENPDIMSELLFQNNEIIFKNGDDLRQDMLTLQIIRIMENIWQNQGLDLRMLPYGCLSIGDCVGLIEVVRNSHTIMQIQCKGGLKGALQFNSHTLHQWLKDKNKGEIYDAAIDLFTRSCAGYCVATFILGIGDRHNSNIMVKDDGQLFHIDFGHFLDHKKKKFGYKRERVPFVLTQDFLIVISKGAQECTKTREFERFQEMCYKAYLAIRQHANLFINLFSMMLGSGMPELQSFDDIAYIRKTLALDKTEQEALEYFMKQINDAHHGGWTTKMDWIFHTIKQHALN
# [5] = target: kinases (KINOMEscan panel) (Homo sapiens, UniProt Q00536); conditions: kinase CDK16; NEW KINOMEscan
# kinases (KINOMEscan panel) (Homo sapiens, UniProt Q00536), sequence (Q00536 whole entry): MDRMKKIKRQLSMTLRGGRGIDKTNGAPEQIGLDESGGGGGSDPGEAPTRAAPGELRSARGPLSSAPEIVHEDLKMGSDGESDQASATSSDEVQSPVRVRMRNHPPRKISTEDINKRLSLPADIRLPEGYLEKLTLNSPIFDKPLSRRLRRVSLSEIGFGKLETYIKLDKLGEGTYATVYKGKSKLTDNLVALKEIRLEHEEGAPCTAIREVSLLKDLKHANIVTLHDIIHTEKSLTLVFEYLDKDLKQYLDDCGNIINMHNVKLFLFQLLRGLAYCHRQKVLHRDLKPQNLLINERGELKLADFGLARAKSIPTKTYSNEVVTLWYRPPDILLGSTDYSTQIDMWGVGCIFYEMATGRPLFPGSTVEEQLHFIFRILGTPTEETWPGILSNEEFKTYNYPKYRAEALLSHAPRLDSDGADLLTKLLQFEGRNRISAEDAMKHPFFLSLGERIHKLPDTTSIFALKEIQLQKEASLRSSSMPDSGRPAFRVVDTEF
# [6] = target: kinases (KINOMEscan panel) (Homo sapiens, UniProt Q16816); conditions: PHKG1; NEW KINOMEscan
# kinases (KINOMEscan panel) (Homo sapiens, UniProt Q16816), sequence (Q16816 whole entry): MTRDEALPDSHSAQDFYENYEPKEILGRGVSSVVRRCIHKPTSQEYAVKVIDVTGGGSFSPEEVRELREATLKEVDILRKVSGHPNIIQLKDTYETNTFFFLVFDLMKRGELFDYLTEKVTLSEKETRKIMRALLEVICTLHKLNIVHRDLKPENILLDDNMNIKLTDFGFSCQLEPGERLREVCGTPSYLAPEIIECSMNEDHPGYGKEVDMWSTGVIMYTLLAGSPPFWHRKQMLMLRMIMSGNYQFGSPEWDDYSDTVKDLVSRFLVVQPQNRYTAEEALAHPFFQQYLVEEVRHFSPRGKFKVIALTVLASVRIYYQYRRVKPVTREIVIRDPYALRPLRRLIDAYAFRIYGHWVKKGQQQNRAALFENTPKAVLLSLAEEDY
# [7] = target: T1, kinases (KINOMEscan panel) (Homo sapiens, UniProt Q92630); conditions: DYRK2; NEW KINOMEscan
# T1 sequence (Q92630 1-601): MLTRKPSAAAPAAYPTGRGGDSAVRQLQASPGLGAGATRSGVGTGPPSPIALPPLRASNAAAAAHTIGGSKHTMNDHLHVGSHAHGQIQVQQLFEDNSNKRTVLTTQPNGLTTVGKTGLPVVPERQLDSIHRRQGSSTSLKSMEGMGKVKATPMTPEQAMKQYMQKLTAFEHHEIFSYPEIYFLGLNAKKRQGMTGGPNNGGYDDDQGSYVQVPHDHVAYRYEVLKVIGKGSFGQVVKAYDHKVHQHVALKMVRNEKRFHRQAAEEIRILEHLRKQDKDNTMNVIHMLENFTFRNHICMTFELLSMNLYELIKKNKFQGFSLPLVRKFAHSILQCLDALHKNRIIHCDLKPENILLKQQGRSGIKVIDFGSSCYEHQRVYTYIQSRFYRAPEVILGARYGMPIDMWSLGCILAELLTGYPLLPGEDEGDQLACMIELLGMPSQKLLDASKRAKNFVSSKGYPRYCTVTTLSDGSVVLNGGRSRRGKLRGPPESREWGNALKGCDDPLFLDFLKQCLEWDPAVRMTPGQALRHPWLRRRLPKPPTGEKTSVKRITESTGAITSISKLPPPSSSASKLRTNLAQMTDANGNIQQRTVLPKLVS
# [8] = target: T2, kinases (KINOMEscan panel) (Homo sapiens, UniProt Q96D53); conditions: kinase COQ8B; NEW KINOMEscan
# T2 sequence (Q96D53 1-544): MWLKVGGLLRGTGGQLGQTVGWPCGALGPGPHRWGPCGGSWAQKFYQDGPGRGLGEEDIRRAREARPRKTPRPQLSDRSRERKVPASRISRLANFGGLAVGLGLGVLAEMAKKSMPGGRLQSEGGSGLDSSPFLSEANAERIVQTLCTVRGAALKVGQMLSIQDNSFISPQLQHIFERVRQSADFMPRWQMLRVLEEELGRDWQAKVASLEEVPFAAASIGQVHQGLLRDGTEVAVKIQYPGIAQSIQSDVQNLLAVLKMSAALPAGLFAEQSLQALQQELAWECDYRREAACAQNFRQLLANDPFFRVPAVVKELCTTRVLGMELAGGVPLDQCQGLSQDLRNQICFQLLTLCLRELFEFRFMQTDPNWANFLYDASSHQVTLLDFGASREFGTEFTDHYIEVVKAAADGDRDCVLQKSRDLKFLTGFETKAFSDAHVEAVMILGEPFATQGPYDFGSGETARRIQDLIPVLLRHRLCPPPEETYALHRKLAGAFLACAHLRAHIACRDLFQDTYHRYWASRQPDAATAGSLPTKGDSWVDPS
# [9] = target: kinases (KINOMEscan panel) (Homo sapiens, UniProt Q99755); conditions: NEW KINOMEscan
# kinases (KINOMEscan panel) (Homo sapiens, UniProt Q99755), sequence (Q99755 whole entry): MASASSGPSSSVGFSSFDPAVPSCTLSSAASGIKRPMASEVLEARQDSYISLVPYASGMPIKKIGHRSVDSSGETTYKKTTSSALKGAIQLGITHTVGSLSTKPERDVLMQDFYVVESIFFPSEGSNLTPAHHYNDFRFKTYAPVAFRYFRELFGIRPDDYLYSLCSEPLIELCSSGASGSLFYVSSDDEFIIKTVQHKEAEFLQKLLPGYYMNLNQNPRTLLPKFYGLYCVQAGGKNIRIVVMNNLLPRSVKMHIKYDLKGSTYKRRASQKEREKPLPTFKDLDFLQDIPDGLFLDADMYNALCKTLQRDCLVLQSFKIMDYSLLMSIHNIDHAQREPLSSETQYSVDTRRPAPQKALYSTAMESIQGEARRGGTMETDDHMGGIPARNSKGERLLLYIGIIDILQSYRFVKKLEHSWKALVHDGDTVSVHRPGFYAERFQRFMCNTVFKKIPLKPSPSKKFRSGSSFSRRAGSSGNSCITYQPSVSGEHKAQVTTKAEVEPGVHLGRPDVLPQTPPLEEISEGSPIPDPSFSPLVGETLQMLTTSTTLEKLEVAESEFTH
# [10] = target: T3, kinases (KINOMEscan panel) (Homo sapiens, UniProt Q9UQ88); conditions: NEW KINOMEscan
# T3 sequence (Q9UQ88 1-783): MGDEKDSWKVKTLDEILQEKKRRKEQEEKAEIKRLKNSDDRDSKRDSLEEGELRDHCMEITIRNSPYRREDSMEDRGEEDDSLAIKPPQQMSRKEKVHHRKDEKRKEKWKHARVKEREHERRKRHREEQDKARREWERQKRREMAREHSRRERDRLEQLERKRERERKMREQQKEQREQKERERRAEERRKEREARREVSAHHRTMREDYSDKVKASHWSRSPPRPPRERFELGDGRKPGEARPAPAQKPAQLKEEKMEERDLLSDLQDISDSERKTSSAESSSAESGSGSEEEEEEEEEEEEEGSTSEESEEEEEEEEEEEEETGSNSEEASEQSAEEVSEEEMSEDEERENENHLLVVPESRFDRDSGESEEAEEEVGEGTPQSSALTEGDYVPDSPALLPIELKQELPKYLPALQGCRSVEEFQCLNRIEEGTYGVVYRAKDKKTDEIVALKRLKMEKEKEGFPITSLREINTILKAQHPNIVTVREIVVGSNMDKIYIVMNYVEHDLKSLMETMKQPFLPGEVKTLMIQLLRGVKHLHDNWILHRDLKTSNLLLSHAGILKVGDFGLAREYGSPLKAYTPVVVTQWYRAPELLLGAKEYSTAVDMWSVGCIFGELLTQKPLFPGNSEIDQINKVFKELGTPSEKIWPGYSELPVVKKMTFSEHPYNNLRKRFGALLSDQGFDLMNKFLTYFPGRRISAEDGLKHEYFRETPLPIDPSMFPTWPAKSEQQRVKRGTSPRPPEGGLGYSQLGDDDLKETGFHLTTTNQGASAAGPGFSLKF
# [11] = target: kinases (KINOMEscan panel) (Homo sapiens, UniProt Q9Y3S1); conditions: WNK2; NEW KINOMEscan
# kinases (KINOMEscan panel) (Homo sapiens, UniProt P07333), sequence (P07333 20-972): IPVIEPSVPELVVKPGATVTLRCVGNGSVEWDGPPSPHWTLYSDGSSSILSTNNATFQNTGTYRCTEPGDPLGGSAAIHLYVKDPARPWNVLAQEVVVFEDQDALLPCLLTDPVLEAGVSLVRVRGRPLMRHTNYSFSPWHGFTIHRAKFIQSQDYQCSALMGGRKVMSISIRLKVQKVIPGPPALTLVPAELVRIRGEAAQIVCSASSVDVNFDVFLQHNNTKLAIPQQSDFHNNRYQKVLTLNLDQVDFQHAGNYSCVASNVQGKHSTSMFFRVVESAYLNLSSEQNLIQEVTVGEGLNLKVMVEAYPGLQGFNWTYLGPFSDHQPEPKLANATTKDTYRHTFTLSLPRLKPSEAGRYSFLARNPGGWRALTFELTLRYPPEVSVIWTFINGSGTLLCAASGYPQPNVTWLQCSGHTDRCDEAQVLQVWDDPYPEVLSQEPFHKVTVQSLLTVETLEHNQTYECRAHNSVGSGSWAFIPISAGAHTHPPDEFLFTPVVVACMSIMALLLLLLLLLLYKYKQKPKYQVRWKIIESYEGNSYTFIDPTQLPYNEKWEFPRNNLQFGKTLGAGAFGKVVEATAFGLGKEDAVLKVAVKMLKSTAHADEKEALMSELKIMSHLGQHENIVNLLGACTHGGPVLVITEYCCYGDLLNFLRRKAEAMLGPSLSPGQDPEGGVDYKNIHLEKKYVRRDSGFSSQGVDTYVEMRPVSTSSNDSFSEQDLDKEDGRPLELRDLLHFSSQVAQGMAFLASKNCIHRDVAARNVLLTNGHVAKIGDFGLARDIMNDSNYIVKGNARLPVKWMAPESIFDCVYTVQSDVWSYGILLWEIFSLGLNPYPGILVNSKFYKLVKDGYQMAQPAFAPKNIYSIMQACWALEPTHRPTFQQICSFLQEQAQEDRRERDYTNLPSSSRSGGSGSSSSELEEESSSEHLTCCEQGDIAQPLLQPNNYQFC
# kinases (KINOMEscan panel) (Homo sapiens, UniProt P12931), sequence (P12931 whole entry): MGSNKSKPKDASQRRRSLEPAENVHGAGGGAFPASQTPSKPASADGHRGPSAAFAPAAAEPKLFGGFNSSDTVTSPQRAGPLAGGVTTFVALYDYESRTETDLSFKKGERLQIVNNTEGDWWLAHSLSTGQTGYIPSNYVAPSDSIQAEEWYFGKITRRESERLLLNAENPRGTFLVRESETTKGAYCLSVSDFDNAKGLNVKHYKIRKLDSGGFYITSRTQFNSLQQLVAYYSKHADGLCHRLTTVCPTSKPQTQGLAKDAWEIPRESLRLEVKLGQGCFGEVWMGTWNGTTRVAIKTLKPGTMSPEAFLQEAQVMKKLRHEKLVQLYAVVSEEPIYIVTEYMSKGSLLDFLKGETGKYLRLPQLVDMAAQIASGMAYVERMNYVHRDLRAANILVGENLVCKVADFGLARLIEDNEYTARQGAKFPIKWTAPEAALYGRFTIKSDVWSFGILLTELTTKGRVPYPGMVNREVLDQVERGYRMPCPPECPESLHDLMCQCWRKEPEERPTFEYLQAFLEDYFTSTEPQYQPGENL
Compound,KINOMEscan CSF1R [1],KINOMEscan CSF1R-autoinhibited [1],KINOMEscan SRC [2],KINOMEscan AKT2 [3],KINOMEscan PIK3CA(M1043I) [4],KINOMEscan CDK16 [5],KINOMEscan PHKG1 [6],KINOMEscan DYRK2 [7],KINOMEscan COQ8B [8],KINOMEscan PIP5K1A [9],KINOMEscan CDK11A [10],KINOMEscan WNK2 [11]
Cc1cccc(-c2nc(Nc3ccc4nn(C)cc4c3)c3ccccc3n2)n1 [NK167],16,0,13,28,17,0,5,0,0,49,24,0
Cc1cccc(-c2nc(N(C)c3ccc4ncsc4c3)c3ccccc3n2)n1 [NK-161],18,26,18,19,10,0,5,12,0,52,25,0
